The source of these data is article PMC6631349 (Xenobiotica; the fate of foreign compounds in biological …, 2014).

One data set deals with UGT isoforms. As to the kind of experiment: Initial screening towards all UGT isoforms. As to conditions: about 50 μM; isoforms not given. It is filed as biochemical, human.
A further data set addresses T1, UGT1A3 (Homo sapiens, UniProt P35503).
T1 sequence (P35503 29-534): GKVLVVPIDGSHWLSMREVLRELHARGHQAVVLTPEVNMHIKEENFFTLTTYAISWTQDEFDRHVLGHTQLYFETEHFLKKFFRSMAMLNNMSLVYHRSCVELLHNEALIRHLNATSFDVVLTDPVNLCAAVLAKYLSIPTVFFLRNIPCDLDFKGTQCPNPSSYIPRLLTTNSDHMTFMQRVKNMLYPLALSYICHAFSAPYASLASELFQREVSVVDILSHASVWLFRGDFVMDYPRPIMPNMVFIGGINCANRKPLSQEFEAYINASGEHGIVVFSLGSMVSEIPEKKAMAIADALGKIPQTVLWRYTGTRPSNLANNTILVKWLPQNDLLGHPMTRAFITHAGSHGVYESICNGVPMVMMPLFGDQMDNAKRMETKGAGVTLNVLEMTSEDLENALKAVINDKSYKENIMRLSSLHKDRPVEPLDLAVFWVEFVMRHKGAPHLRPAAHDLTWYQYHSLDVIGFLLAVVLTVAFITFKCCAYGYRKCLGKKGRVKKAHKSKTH
Briefly: UGT1A3 supersomes-catalyzed 4-MU glucuronidation inhibition. Conditions: recombinant human UGT, mean of triplicate.

In a further data set the target is T2, UGT1A7 (Homo sapiens, UniProt Q9HAW7).
T2 sequence (Q9HAW7 26-530): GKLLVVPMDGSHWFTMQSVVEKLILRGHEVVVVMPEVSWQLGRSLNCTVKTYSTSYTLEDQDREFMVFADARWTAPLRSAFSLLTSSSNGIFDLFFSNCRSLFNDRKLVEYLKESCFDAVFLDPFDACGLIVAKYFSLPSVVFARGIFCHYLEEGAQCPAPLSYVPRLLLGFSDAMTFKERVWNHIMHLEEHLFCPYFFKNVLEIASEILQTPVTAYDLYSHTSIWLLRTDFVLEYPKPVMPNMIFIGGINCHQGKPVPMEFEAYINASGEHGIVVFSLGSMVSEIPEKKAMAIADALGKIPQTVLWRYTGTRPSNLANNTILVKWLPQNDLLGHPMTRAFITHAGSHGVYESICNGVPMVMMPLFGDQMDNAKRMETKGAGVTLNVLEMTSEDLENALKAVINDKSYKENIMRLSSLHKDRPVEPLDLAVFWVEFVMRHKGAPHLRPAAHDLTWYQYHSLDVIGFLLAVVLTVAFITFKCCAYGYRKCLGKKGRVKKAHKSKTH
Briefly: UGT1A7 supersomes-catalyzed 4-MU glucuronidation inhibition. Conditions: recombinant human UGT, mean of triplicate.

The target of the next data set is T3, UGT1A9 (Homo sapiens, UniProt O60656).
T3 sequence (O60656 26-530): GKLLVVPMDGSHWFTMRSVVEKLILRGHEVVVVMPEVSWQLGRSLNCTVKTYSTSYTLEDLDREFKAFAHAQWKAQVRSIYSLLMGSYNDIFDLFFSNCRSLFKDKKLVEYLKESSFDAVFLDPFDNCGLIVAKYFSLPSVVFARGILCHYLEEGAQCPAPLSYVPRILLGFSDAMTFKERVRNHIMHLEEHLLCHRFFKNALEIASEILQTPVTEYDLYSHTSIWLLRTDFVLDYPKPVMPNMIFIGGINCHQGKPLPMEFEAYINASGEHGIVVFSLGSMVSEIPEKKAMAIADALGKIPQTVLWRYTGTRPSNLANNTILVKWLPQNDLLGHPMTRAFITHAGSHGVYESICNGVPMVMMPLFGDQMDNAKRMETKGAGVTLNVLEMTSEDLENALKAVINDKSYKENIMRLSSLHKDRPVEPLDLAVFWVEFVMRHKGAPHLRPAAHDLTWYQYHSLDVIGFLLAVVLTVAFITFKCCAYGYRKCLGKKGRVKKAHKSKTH
Briefly: UGT1A9 supersomes-catalyzed 4-MU glucuronidation inhibition. As to conditions: recombinant human UGT, mean of triplicate.

Regarding `CCCCCCCCCCCCCCC(=O)OC[C@@H](O)COP(=O)([O-])OCC[N+](C)(C)C` [LPC 15:0], the “inhibition of activity of UGT isoforms” value in the data set on UGT isoforms was “more than 90%”. In addition, the “residual activity 1A3” value at UGT1A3 (50 μM LPC components) amounted to 52.8%. For the same compound, on UGT1A7 (50 μM LPC components), the “residual activity 1A7” value came out at 156.2%. Further, at UGT1A9 (50 μM LPC components), the “residual activity 1A9” value is reported as 82.8%.

With `CCCCCCCCCCCCCCCCC(=O)OC[C@@H](O)COP(=O)([O-])OCC[N+](C)(C)C` [LPC 17:0], the “inhibition of activity of UGT isoforms” value in the data set with UGT isoforms was “more than 90%”. At UGT1A3 (50 μM LPC components), the “residual activity 1A3” value came out at 119.0%. For the same compound, the “residual activity 1A7” value at UGT1A7 (50 μM LPC components) was 164.3%. In addition, the “residual activity 1A9” value at UGT1A9 (50 μM LPC components) was determined as 87.5%.

On to `CCCCCCCCCCCCCCCCCC(=O)OC[C@@H](O)COP(=O)([O-])OCC[N+](C)(C)C` [LPC 18:0], for which the “inhibition of activity of UGT isoforms” value in the data set with UGT isoforms is “more than 90%”. Further, at UGT1A3 (50 μM LPC components), the “residual activity 1A3” value was determined as 72.4%. Also, the “residual activity 1A7” value at UGT1A7 (50 μM LPC components) was determined as 133.4%. Further, the “residual activity 1A9” value on UGT1A9 (50 μM LPC components) came to 64.4%.

In the case of `CCCCCCCCCCCCC(=O)OC[C@H](COP(=O)([O-])OCC[N+](C)(C)C)OC(=O)CCCCCCCCCCCC` [PC 13:0, 13:0], on UGT1A3 (50 μM PC components), the “residual activity 1A3” value was determined as 110.7%. Further, the “residual activity 1A7” value at UGT1A7 (50 μM PC components) was 160.6%. Further, the “residual activity 1A9” value at UGT1A9 (50 μM PC components) was determined as 99.2%.

Consider `CCCCCCCCCCCCCC(=O)OC[C@H](COP(=O)([O-])OCC[N+](C)(C)C)OC(=O)CCCCCCCCCCCCC` [PC 14:0, 14:0], for which the “residual activity 1A3” value on UGT1A3 (50 μM PC components) is on record as 97.3%. Besides, the “residual activity 1A7” value at UGT1A7 (50 μM PC components) is 162.3%. On UGT1A9 (50 μM PC components), the “residual activity 1A9” value is 86.3%.

With `CCCCCCCCCCCCCCC(=O)OC[C@H](COP(=O)([O-])OCC[N+](C)(C)C)OC(=O)CCCCCCCCCCCCCC` [PC 15:0, 15:0], on UGT1A3 (50 μM PC components), the “residual activity 1A3” value was 103.4%. Besides, at UGT1A7 (50 μM PC components), the “residual activity 1A7” value was determined as 172.7%. The “residual activity 1A9” value at UGT1A9 (50 μM PC components) was determined as 64.7%.

As for `CCCCCCCCCCCCCCCC(=O)OC[C@H](COP(=O)([O-])OCC[N+](C)(C)C)OC(=O)CCCCCCCCCCCCCCC` [PC 16:0, 16:0], at UGT1A3 (50 μM PC components), the “residual activity 1A3” value came out at 92.6%. Further, at UGT1A7 (50 μM PC components), the “residual activity 1A7” value came to 155.2%. Also, at UGT1A9 (50 μM PC components), the “residual activity 1A9” value is 67.5%.

With `CCCCCCCCCCCCCCCCC(=O)OC[C@H](COP(=O)([O-])OCC[N+](C)(C)C)OC(=O)CCCCCCCCCCCCCCCC` [PC 17:0, 17:0], the “residual activity 1A3” value at UGT1A3 (50 μM PC components) came to 81.4%. For the same compound, the “residual activity 1A7” value at UGT1A7 (50 μM PC components) came out at 138.9%. In addition, at UGT1A9 (50 μM PC components), the “residual activity 1A9” value is 65.7%.

For `CCCCCCCCCCCCCCCCCC(=O)OC[C@H](COP(=O)([O-])OCC[N+](C)(C)C)OC(=O)CCCCCCCCCCCCCCCCC` [PC 18:0, 18:0], the “residual activity 1A3” value at UGT1A3 (50 μM PC components) was 83.7%. Also, the “residual activity 1A7” value at UGT1A7 (50 μM PC components) is reported as 139.9%. For the same compound, the “residual activity 1A9” value on UGT1A9 (50 μM PC components) was determined as 67.7%.

In the case of `CC/C=C\C/C=C\C/C=C\C/C=C\C/C=C\C/C=C\CCC(=O)O[C@H](COC(=O)CCCCCCCCCCCCCCCCC)COP(=O)([O-])OCC[N+](C)(C)C` [PC 18:0, 22:6, 1-stearoyl-2-docosahexaenoyl-sn-glycero-3-phosphocholine], on UGT1A3 (50 μM PC components), the “residual activity 1A3” value is given as 90.0%. Also, the “residual activity 1A7” value at UGT1A7 (50 μM PC components) amounted to 167.9%. Also, the “residual activity 1A9” value on UGT1A9 (50 μM PC components) was determined as 94.4%.

Turning to `CCCCCCCCCCCCCCCCCCC(=O)OC[C@H](COP(=O)([O-])OCC[N+](C)(C)C)OC(=O)CCCCCCCCCCCCCCCCCC` [PC 19:0, 19:0], at UGT1A3 (50 μM PC components), the “residual activity 1A3” value was found to be 75.9%. In addition, the “residual activity 1A7” value at UGT1A7 (50 μM PC components) was 135.5%. Also, the “residual activity 1A9” value on UGT1A9 (50 μM PC components) amounted to 42.3%.

Regarding `CCCCCCCCCCCCCCCCCCCC(=O)OC[C@H](COP(=O)([O-])OCC[N+](C)(C)C)OC(=O)CCCCCCCCCCCCCCCCCCC` [PC 20:0, 20:0], the “residual activity 1A3” value on UGT1A3 (50 μM PC components) is given as 90.8%. Also, on UGT1A7 (50 μM PC components), the “residual activity 1A7” value is given as 125.5%. Moreover, the “residual activity 1A9” value on UGT1A9 (50 μM PC components) was 65.6%.

As for `CCCCCCCCCCCCCCCCCCCCC(=O)OC[C@H](COP(=O)([O-])OCC[N+](C)(C)C)OC(=O)CCCCCCCCCCCCCCCCCCCC` [PC 21:0, 21:0], the “residual activity 1A3” value on UGT1A3 (50 μM PC components) is 88.2%. In addition, the “residual activity 1A7” value at UGT1A7 (50 μM PC components) was determined as 122.0%. The “residual activity 1A9” value on UGT1A9 (50 μM PC components) was found to be 38.1%.

For `CCCCCCCCCCCCCCCCCCCCCC(=O)OC[C@H](COP(=O)([O-])OCC[N+](C)(C)C)OC(=O)CCCCCCCCCCCCCCCCCCCCC` [PC 22:0, 22:0], the “residual activity 1A3” value on UGT1A3 (50 μM PC components) is on record as 92.1%. For the same compound, on UGT1A7 (50 μM PC components), the “residual activity 1A7” value stood at 86.2%. Also, the “residual activity 1A9” value on UGT1A9 (50 μM PC components) amounted to 43.9%.

Turning to `CCCCCCCCCCCCCCCCCCCCCCC(=O)OC[C@H](COP(=O)([O-])OCC[N+](C)(C)C)OC(=O)CCCCCCCCCCCCCCCCCCCCCC` [PC 23:0, 23:0], the “residual activity 1A3” value on UGT1A3 (50 μM PC components) is reported as 80.4%. The “residual activity 1A7” value on UGT1A7 (50 μM PC components) came out at 118.8%. The “residual activity 1A9” value on UGT1A9 (50 μM PC components) was 77.3%.
